We go through 4 compounds from paper PMC6021390, “A promiscuous cytochrome P450 aromatic O-demethylase for lignin bioconversion” (Nature Communications, 2018).

“Also recorded” adds a separate entry of the source.

Experiment [1] concerns T1, LigX.
T1 construct: LigXa with LigXc and LigXd
The experiment is described as follows: Cited steady-state O-demethylation of 5,5'-dehydrodivanillate (10-500 uM) by 0.2 uM LigXa, 6 uM LigXc and 0.4 uM LigXd with 500 uM NADH in FE22 buffer, pH 6.0, 30 °C, air. The format is biochemical. The note with it: cited from earlier work.

Experiment [2] concerns LigX. On the set-up: method as in ref 37 (a number printed in a supplementary file, which may have a reference list of its own: not looked up in the article's list). To be noted: 0.2 μM LigXa, 6 μM LigXc, 0.4 μM LigXd, 500 μM NADH, substrate 10-500 μM, FE22 buffer, pH 6.0, 30 °C; cited from earlier work.
Experiment [3] deals with PODA. The experiment is described as follows: Cited steady-state O-demethylation of cryptopine (0-500 uM) by 100 ug PODA with 500 uM alpha-ketoglutarate, 500 uM iron sulfate and 10 mM sodium ascorbate in 100 mM Tris, pH 7.4, 30 °C, air. The format is biochemical. To be noted: cited from earlier work.
Experiment [4] relates to PODA. Further details: method as in ref 36 (a number printed in a supplementary file, which may have a reference list of its own: not looked up in the article's list). The note with it: 100 μg PODA, 500 μM α-KG, 500 μM iron sulfate, 10 mM sodium ascorbate, cryptopine 0-500 μM, pH 7.4, 30 °C; cited from earlier work.
The next experiment concerns LigM. On the set-up: method as in ref 35 (a number printed in a supplementary file, which may have a reference list of its own: not looked up in the article's list). The note with it: 0.076 μM LigM, 5 mM H4-folate, pH 8.0, 30 °C, cited from earlier work.
Another experiment has as its target T2, GcoAB (Amycolatopsis sp., UniProt P0DPQ7).
T2 sequence (P0DPQ7 1-407): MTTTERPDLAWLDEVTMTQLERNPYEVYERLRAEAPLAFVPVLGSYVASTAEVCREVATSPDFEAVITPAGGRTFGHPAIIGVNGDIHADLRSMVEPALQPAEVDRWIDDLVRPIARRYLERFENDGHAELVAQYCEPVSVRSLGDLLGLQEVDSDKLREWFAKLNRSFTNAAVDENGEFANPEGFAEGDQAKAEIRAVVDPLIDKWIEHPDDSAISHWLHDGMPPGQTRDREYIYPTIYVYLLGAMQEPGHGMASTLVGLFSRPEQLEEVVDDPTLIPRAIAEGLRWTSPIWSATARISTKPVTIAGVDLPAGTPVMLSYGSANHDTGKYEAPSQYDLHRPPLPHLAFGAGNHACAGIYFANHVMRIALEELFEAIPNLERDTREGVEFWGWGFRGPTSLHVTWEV
T2 sequence (P0DPQ8 1-334 partner): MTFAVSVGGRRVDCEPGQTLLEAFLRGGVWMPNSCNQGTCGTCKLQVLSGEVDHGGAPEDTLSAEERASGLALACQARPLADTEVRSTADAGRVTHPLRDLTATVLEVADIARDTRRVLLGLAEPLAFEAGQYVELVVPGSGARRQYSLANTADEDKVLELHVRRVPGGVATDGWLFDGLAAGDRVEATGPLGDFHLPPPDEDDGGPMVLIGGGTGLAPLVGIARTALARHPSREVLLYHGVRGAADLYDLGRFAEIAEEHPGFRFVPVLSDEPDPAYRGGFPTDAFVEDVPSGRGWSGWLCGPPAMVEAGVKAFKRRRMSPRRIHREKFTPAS
The note with it: screen of ten O-methylated aromatic compounds. Here is the method:
The demethylation of guaiacol and substrate analogs was continuously monitored under steady-state conditions. […] A total of 100 µg/mL catalase was added to each reaction to capture any H2O2 formed during the uncoupled reaction. […] A total of 20–300 µM guaiacol (preferred substrate) or an alternate substrate from a 2.5 mM stock dissolved in DMSO was added and the reaction was monitored via measurement of UV/vis spectra for several minutes. […] A plot of vi vs [guaiacol] was fit to Eq. (2) to obtain kcat, KM, and kcat/KM. For specific activity determination, the above method was used but with saturating (300 µM) guaiacol. […] Reported values are the average of ≥3 measurements and reported errors are standard deviations.
Reactions with vanillin were performed in the same manner described above.

For the compound `COc1cc(C(=O)O)cc(-c2cc(C(=O)O)cc(OC)c2O)c1O` [5,5'-dehydrodivanillate], the Km with LigX [1] is 64 µM.

Consider `COc1cc(C(=O)O)cc(-c2cc(C(=O)O)cc(OC)c2O)c1O` [5,5’-dehydrodivanillate], for which the kcat with LigX [2] is 6.1 ± 0.2 s⁻¹.

`COc1cc2c(cc1OC)C(=O)Cc1ccc3c(c1CN(C)CC2)OCO3` [cryptopine]: in the experiment on PODA [3], the Km is 27 µM. In the experiment with PODA [4], the kcat was 0.034 s⁻¹.

As for `COc1cc(C(=O)O)ccc1O` [vanillate], in the experiment with LigM, the Km is 630 ± 80 µM. Moreover, in the experiment on LigM (vanillate 0.1-5 mM, 100 mM Tris, air), the kcat is 5.8 ± 0.25 s⁻¹. Also, the “binding or catalytic interaction with GcoA” value at GcoAB is given as “no detectable binding or catalytic interaction; also recorded: preclude binding and/or demethylation”.

The term Km denotes the substrate concentration at which the rate is half of its maximum. In general, kcat refers to the number of substrate molecules converted per active site and unit of time at saturation.
